This data set in a line: Storage stability of IPBC in Dowanol TPM solution with cobalt dryer and stabilizer, IPBC amount by HPLC. It is filed as physicochemical. To be noted: solution in Dowanol TPM with 10% by weight IPBC, 5% by weight Octasoligen-Cobalt 8, 5% by weight stabilizer; for Amount of IPBC (2 weeks, 40° C.): after two weeks storage at 40° C.; for Amount of IPBC (start): at the beginning. As to the method: A solution is prepared in Dowanol TPM (tripropylene glycol methyl ether), containing 10% by weight of iodopropargyl butylcarbamate, 5% by weight of Octasoligen-Cobalt 8 (Borchers, Langenfeld, Germany) and 5% by weight of the stabilizer specified in Table 1. The compositions are stored at 40° C. The amount of IPBC was determined by means of HPLC at the beginning and after two weeks.

Consider `C=C(C)C(=O)OCCc1ccc(O)c(-n2nc3ccccc3n2)c1` [Example 2], for which the “Amount of IPBC (2 weeks, 40° C.)” value came out at 9.3% and the “Amount of IPBC (start)” value was found to be 9.9%.
On the same counts, the results for `CC(C)(C)c1ccc(O)c(-n2nc3ccccc3n2)c1` [Example 5] are 9.8% and 9.8%.
Consider `OCCc1ccc(O)c(-n2nc3ccccc3n2)c1` [Example 1], for which the “Amount of IPBC (2 weeks, 40° C.)” value is 10.4% and the “Amount of IPBC (start)” value came out at 11.3%.
In the case of `Cc1ccc(O)c(-n2nc3ccccc3n2)c1` [Example 4], the “Amount of IPBC (2 weeks, 40° C.)” value is 9.3% and the “Amount of IPBC (start)” value is given as 9.9%.
For the compound `CC(C)(C)CC(C)(C)c1ccc(O)c(-n2nc3ccccc3n2)c1` [Example 3], the “Amount of IPBC (2 weeks, 40° C.)” value was 9.5% and the “Amount of IPBC (start)” value is reported as 9.9%.
